Eight compounds from US9744164B2, “Neuroprotective polyphenol analogs” (Salk Institute for Biological Studies, priority 2011, dated 2017) can be followed below.

Experiment [1] relates to N9 microglial cells. In words: anti-inflammatory assay, LPS-induced microglial activation (NO release). It is filed as cell-based, mouse. The settings on record: bacterial lipopolysaccharide, derivative 1-10 μM, 24 hr. The essentials:
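Mouse N9 microglia in DME/7.5% DFCS stimulated with 10 μg/ml LPS alone or with derivatives (1-10 μM) for 24 hr. NO in cleared medium measured by Griess reagent, 10 min at room temperature, absorbance at 550 nm. Fisetin (10 μM) as positive control.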

Experiment [2] deals with Nrf2. Description: Nrf2 induction, SDS-PAGE and Western blotting of nuclear extracts. The class given is cell-based. The settings on record: cells treated 1, 2 and 4 hr at most protective concentration. As to the method:
SDS-PAGE and immunoblotting. For immunoblotting of Nrf2, nuclear extracts were prepared as described (Schreiber, et al., Nucleic Acids Res. (1989) 17 (15), 6419) from untreated cells and cells treated with the Fisetin derivatives for 1, 2 and 4 hr. Fisetin was used as a positive control. […] Protein concentrations were determined using the BCA protein assay (Pierce). Equal amounts of protein were solubilized in 2.5× SDS-sample buffer, separated on 10% SDS-polyacrylamide gels and transferred to nitrocellulose. Equal loading and transfer of the samples was confirmed by staining the nitrocellulose with Ponceau-S. Transfers were blocked for 1 hr at room temperature with 5% nonfat milk in TBS/0.1% Tween 20 and then incubated overnight at 4° C. in the primary antibody diluted in 5% BSA in TBS/0.05% Tween 20. The primary antibodies used were: anti-Nrf2 (#SC13032; 1/1000) from Santa Cruz Biotechnology (Santa Cruz, Calif.) and anti-β-actin (#5125; 1/20,000) from Cell Signaling (Beverly, Mass.). The transfers were rinsed with TB S/0.05% Tween 20 and incubated for 1 hr at room temperature in horseradish peroxidase-goat anti-rabbit or goat anti-mouse (Biorad, Hercules, Calif.) diluted 1/5000 in 5% nonfat milk in TBS/0.1% Tween 20. The immunoblots were developed with the Super Signal reagent (Pierce, Rockford, Ill.).
The transcription factor Nrf2 plays a key role in regulating GSH metabolism in many different cell types (Lewerenz, et al., Antioxidant & Redox Signaling. (2011) 14, 1449-1465). We have shown that Fisetin can induce Nrf2 and this correlates with its ability to enhance GSH levels (Maher, P. et al., Genes. Nutr. (2009) Sep. 10). To determine if the derivatives which can maintain GSH levels do so by increasing Nrf2 we looked at Nrf2 levels in the nuclei of derivative-treated cells using Fisetin as a positive control (Table 4). […] This was particularly true for the derivatives based on the quinoline scaffold where none of them increased Nrf2 despite being very effective at maintaining GSH levels.
The ability of the derivatives that maintain GSH levels to induce the transcription factor Nrf2 was assayed by SDS-PAGE and Western blotting of nuclear extracts of untreated and derivative-treated cells. Fisetin treatment was used as a positive control.
For orientation: In western blotting, separated proteins are transferred to a membrane and probed.

Take `O=c1c(O)c(-c2ccc(O)c(O)c2)oc2ccccc12` [CMS-04P, reference compound]: the “microglia (anti-inflammatory activity)” value in experiment [1] is recorded as 80%. For the same compound, the “Nrf2 (induction of transcription factor Nrf2)” value (from here on “Nrf2”) in experiment [2] is on record as “Yes”.

For the compound `COc1cc(-c2ccc(O)c(O)c2)nc2ccccc12` [CMS-007, 4-methoxy-2-(3,4-dihydroxyphenyl)quinoline], in experiment [1], the “microglia (anti-inflammatory activity)” value is on record as 85%. For the same compound, in experiment [2], the “Nrf2” value is “No”.

Turning to `CCOc1cc(-c2ccc(O)c(O)c2)nc2ccccc12` [CMS-023, 4-ethoxy-2-(3,4-dihydroxyphenyl)quinoline], the “microglia (anti-inflammatory activity)” value in experiment [1] was determined as 90%. In experiment [2], the “Nrf2” value is reported as “No”.

Take `CC(C)Oc1cc(-c2ccc(O)c(O)c2)nc2ccccc12` [CMS-024, 4-isopropoxy-2-(3,4-dihydroxyphenyl)quinoline]: the “microglia (anti-inflammatory activity)” value in experiment [1] came out at 80%. Besides, the “Nrf2” value in experiment [2] is reported as “No”.

On to `COc1ccc(/C=C/C(=O)c2cc(C)c(C)cc2O)cc1OCc1ccccc1` [CMS-086, (E)-3-(3-(benzyloxy)-4-methoxyphenyl)-1-(2-hydroxy-4,5-dimethylphenyl)prop-2-en-1-one], for which, in experiment [1], the “microglia (anti-inflammatory activity)” value was found to be 70%. The “Nrf2” value in experiment [2] is reported as “Yes”.

In the case of `Oc1ccc(-c2cc(OC3CCCC3)c3ccccc3n2)cc1O` [CMS-121, 4-cyclopentyloxy-2-(3,4-dihydroxyphenyl)quinoline], in experiment [1], the “microglia (anti-inflammatory activity)” value worked out at 82%. For the same compound, in experiment [2], the “Nrf2” value was “No”.

For `O=c1c(O)c(-c2ccc(N3CCCC3)c(O)c2)oc2c1ccc1ccccc12` [CMS-140, 3-hydroxy-2-(3-hydroxy-4-(pyrrolidin-1-yl)phenyl)-4H-benzo[h]chromen-4-one], the “microglia (anti-inflammatory activity)” value in experiment [1] is reported as 50%. For the same compound, the “Nrf2” value in experiment [2] is “No”.

Take `O=c1c(O)c(-c2ccc(O)c(O)c2)oc2cc(O)ccc12` [Fisetin, 3,7,3′,4′-tetrahydroxy flavone]: the “microglia (anti-inflammatory activity)” value in experiment [1] worked out at 80%. In addition, the “Nrf2” value in experiment [2] is reported as “Yes”.
